These results are taken from patent US20230218558A1, “NOVEL THERAPEUTIC USE OF PLEUROMUTILINS” (priority 2020, published 2023).

Values after ≈ are worked out from the molar mass of the structure shown. Where two headings read alike, the source gives them in different places.

Data set [1] has as its system MDCK cells. Conditions: Example 10; for CC50: read-out: TC50, MDCK cells.
Data set [2] concerns Huh7 cells. Description: Cell viability, Huh7 cells, XTT. (In general: Formazan colour is commonly taken as a measure of viable cells.)
Data set [3] relates to HeLa cells. Nature of the data set: Cell viability, HeLa cells, XTT. Conditions: read-out: TC50, Example 6.
For data set [4], the system named is influenza A/Puerto Rico/8/34 (H1N1). It counts as in vivo, BALB/c mice. Conditions: for effect on bodyweight / bodyweight loss: SC, investigated doses, FIG. 7A; for lung viral titre (TCID50 on MDCK cells): Day 3 and Day 6, Lefamulin at both doses, compared with vehicle treated control.
Data set [5] relates to influenza virus strain A/PR/8/34. Nature of the data set: Inhibition of virus-induced CPE, influenza virus in MDCK cells. Type of data set: cell-based.
For data set [6], the system named is MRC-5 cells. Nature of the data set: Cell viability of uninfected drug control wells, MRC-5 cells, XTT. Conditions: Example 1; for cytotoxic effect on the viability of the cell control: concentration 10 μM (b103 prints 10 M for Lefamulin); for cytotoxic effect: concentration 50 μM.
Data set [7] deals with human rhinovirus strain HRV16 strain 11757. Nature of the data set: Inhibition of virus-induced CPE, human rhinovirus in H1-HeLa cells. Type of data set: cell-based. Conditions: Example 9, rhinovirus HRV1611757, 4 h pretreatment, MOI 0.0005. How it is done: Cell viability determination as well as EC50 and TC50 calculations were performed as described in Examples 1 and 3.

Data set [8] relates to HEp2 cells. Description: Cell viability of uninfected drug control wells, HEp2 cells, XTT. The settings on record: Example 3.
Data set [9] concerns herpes simplex type 1 (HSV-1) virus. Conditions: cited from earlier work.
Data set [10] concerns vesicular stomatitis virus (VSV). Conditions: cited from earlier work.
Data set [11] relates to polio virus. Conditions: cited from earlier work.
In data set [12] the test system is influenza A virus strain (PR8). Conditions: concentration of 2 mg/mL; cited from earlier work.
The subject of data set [13] is MRC-5 cells. Conditions: human.
For data set [14], the system named is Measles virus strain Edmonston. Nature of the data set: microbe, parasite or virus in culture. It counts as cell-based. The settings on record: Measles morbillivirus, HeLa.
The subject of data set [15] is influenza A virus, porcine reproductive and respiratory syndrome virus (PRRSV) type 1 and 2. Conditions: WO 2009/106839; 4 hours post inoculation; cited from earlier work.
Setting [16] is: read-out: TC50, Example 8, Zika experiment.
[17] abbreviates: high dose: 105 mg/kg/day SC in three injections until day 3, then 70 mg/kg twice daily.

`C=C[C@]1(C)C[C@@H](OC(=O)CS[C@@H]2CC[C@@H](N)C[C@H]2O)[C@]2(C)C(C)CC[C@]3(CCC(=O)[C@H]32)[C@@H](C)[C@@H]1O` (stereo partly drawn) [Lefamulin, 14-O-{[(1R, 2R, 4R)-4-amino-2-hydroxy-cyclohexylsulfanyl]-acetyl}-mutilin]: in data set [1], the “concentrations cytotoxic to MDCK cells” value is recorded as “greater than 23 μM”. The CC50 in [1] worked out at 23.8 µM; in [2] (read-out: TC50, Example 7, Dengue experiment) it was 23.3 µM; in data set [2] (setting [16]), 23.4 µM; in [3], 72.7 µM. The “effect on bodyweight / bodyweight loss” value in [4] (BALB/c mice) is “did not have a significant effect”. For the same compound, in data set [4], the “lung viral titre (TCID50 on MDCK cells)” value is “reduced lung viral titres”. The “clinical scores compared to vehicle” value in [4] (setting [17]) is given as “increase in clinical scores”. Besides, in data set [4] (setting [17]), the “survival compared to vehicle” value is “decrease in survival”. Also, in [4] (high dose, Day 6 lungs, compared to vehicle), the “bronchial degeneration and alveolar inflammation (histopathology)” value is listed as “significant reduction”. The overall histopathology score result in [4] (high dose, Day 6 lungs, compared to vehicle treated control) is “overall significant reduction”. This compound also registered a survival in data set [4] (lower dose: 35 mg/kg SC twice daily (70 mg/kg/day), until day 6) of 90%. For the same compound, the EC50 in [5] is over 23.8 µM; in data set [7], 9.34 µM. In addition, the “cytotoxic effect on the viability of the cell control” value is recorded as “no cytotoxic effect” in data set [6]; “no cytotoxic effect” in data set [8] (concentrations 10 μM and 50 μM). For the same compound, the cytotoxic effect entry in [6] and in data set [8] (concentration 100 μM) was “cytotoxic effect” in each case. In [6] (uninfected MRC-5 cells, 6 days), this compound registered a TC50 of 55.3 µM.

As for `CCOC(=O)C1=C[C@@H](OC(CC)CC)[C@H](NC(C)=O)[C@@H](N)C1` [Oseltamivir], in data set [1], the CC50 was over 200 µM. In addition, the “effect on bodyweight / bodyweight loss” value in data set [4] (BALB/c mice) was “reduction”. Also, the clinical scores result in data set [4] (BALB/c mice, positive control treatment, FIG. 7B) is given as “reduction”. In data set [4], the “lung viral titre (TCID50 on MDCK cells)” value is “reduced lung viral titres”. Also, the EC50 in data set [5] came out at 0.06 µM.

For `C=C[C@]1(C)C[C@@H](OC(=O)CO)[C@]2(C)[C@H](C)CC[C@]3(CCC(=O)[C@H]32)[C@@H](C)[C@@H]1O` [Pleuromutilin], the “concentration that conferred a 50% protection of the cytopathic effect induced by HSV-1 (CPE50)” value in data set [9] was 15 µg/mL. For the same compound, the EC50 in [9] (read-out: concentration that conferred a 50% protection of the cytopathic effect induced by HSV-1 (CPE50)) was 40 µM. Besides, the “activity against vesicular stomatitis virus” value in data set [10] was “activity”. Also, the antiviral activity entry was “did not show antiviral activity” in data set [11] and “antiviral activity” in data set [12].

In data set [13], `CCC(CC)COC(=O)[C@H](C)N[P@](=O)(OC[C@H]1O[C@@](C#N)(c2ccc3c(N)ncnn23)[C@H](O)[C@@H]1O)Oc1ccccc1` [Remdesivir] displayed a CC50 of over 5 µM.

Consider `NC(=O)c1ncn([C@@H]2O[C@H](CO)[C@@H](O)[C@H]2O)n1` [Ribavirin], for which, in data set [14], the EC50 was 1.88 µg/mL (≈ 7.7 µM).

For `CCOC(=O)/C=C/[C@H](C[C@@H]1CCNC1=O)NC(=O)[C@@H](CC(=O)[C@@H](NC(=O)c1cc(C)on1)C(C)C)Cc1ccc(F)cc1` [Rupintrivir], the EC50 in [7] worked out at 0.0049 µM.

Take `CC(C)OC(=O)[C@H](C)N[P@](=O)(OC[C@H]1O[C@@H](n2ccc(=O)[nH]c2=O)[C@](C)(F)[C@@H]1O)Oc1ccccc1` [Sofosbuvir]: in [2] (setting [16]), the CC50 is over 10 µM.

A word on the viability: it is a read-out of living cells in per cent, often relative to untreated cells. Take `C=C[C@]1(C)C[C@@H](OC(=O)CSCCN(CC)CC)[C@]2(C)[C@H](C)CC[C@]3(CCC(=O)[C@H]32)[C@@H](C)[C@@H]1O` [Tiamulin]: the CC50 in data set [13] (6 days) is 62.9 µM. For the same compound, in data set [6], the “cytotoxic effect on the viability of the cell control” value is “no cytotoxic effect was observed” and the cytotoxic effect result is “a cytotoxic effect was observed”. For the same compound, the viability in data set [8] (concentration 10 μM) was found to be 84%. In addition, the viability in data set [8] (concentration 50 μM) amounted to 70.0%.

Consider `C=C[C@]1(C)C[C@@H](OC(=O)CSC(C)(C)CNC(=O)[C@H](N)C(C)C)[C@]2(C)[C@H](C)CC[C@]3(CCC(=O)[C@H]32)[C@@H](C)[C@@H]1O` [Valnemulin], for which the antiviral activity result in data set [15] is given as “did not exhibit antiviral activity”.
